Laboratory results published in patent publication US4946839A, “Azetidine derivatives, compositions and methods of treating” (priority 1987, dated 1990).

What was measured:
GC1 receptor [1] = experiment: calcium influx stimulated by excitatory amino acids in primary cultures of cerebellar granule cells (GC1); assay type: cell-based, rat; settings: for Calcium Influx % of stimulation by 10 μM GLU: 10 μM GLU (Table 2)
Method: (§1) Studies described hereinbelow on the usefulness of the compounds were performed on primary cultures of cerebellar granule cells prepared from 8-day old rats according to the procedures as set forth in Wroblewski et al., Neuropharmacology 24(9), 919-921 (1985). These cultures are characterized by the presence of four subtypes of excitatory amino acid receptors, classified on the basis of the coupling of their recognition sites to specific signal transduction systems, as well as according to the pharmacology of their recognition sites. The classification distinguishes between excitatory amino acid recognition sites coupled with PI hydrolysis (Gp) and those coupled with the activation of Ca^2+ (GC). This is disclosed in greater detail in Wroblewski et al. Proc. Natl. Acad. Sci. […], 5068-5072 (1987) GP1 and GC1 receptors are activated by glutamate, aspartate, N-methyl-D-aspartate (NMDA), antagonized by 2-amino-5-phosphonovalerate (APV), and inhibited by Mg^2+ . These two receptor subtypes correspond to the NMDA receptor, however, two distinct receptors must be postulated on the basis of their signal transducing mechanisms. The GP2 receptor is activated by glutamate and quisqualate, and is insensitive to Mg^2 + and APV. The GC2 receptor is activated by kainate and preferentially antagonized by cis-piperidine-2,3-dicarboxylate. The GC2 receptor is also insensitive to Mg^2+ inhibition. These two receptors correspond to the quisqualate and kainate receptors, respectively.
(§2) Cis-azetidine-2,4-dicarboxylic acid and derivatives selectively potentiate signal transduction at the GC1 and GP1 receptors. Referring to Table 1 the influx of calcium stimulated by NMDA, GLU, ASP and […] acting at the GC1 receptor is potentiated by cis-azetidine-2,4-dicarboxylic acid, while the action of KAIN at the GC2 receptor is not affected.

GP1 receptor = experiment: PI hydrolysis stimulated by GLU in cerebellar granule cells; assay type: cell-based, rat; settings: 20 μM GLU (Table 2); * = antagonistic activity
Method: as §1, §2

NMDA receptor subtype [2] = settings: icv NMDA; cited from earlier work
GC1 receptor [3] = experiment: inhibition of ASP-stimulated calcium influx by phencyclidine and its prevention; assay type: cell-based, rat
Method: as §1
(§3) Phencyclidine (PCP), once used as an anaesthetic, produces strong psychotropic effects manifested in humans by a state of sensory isolation, hallucinations and confusional states. It is one of the most widely abused drugs in the United States. One of the possible mechanisms of action of PCP involves the noncompetitive inhibition of the signal transduction at excitatory amino acid receptors, through allosteric interaction at a site distinct from the primary transmitter site (see Proc. Natl. Acad. Sci. USA discussed above).

NMDA receptor subtype [4] = experiment: cGMP content in the cerebellum after icv injection of NMDA; assay type: in vivo, rat; set-up: cGMP: unit not given here
Method: The action of the NMDA receptor subtype can be estimated in vivo by measuring the changes in the content of cyclic GMP (cGMP) in the rat cerebellum after intracerebroventricular injections of NMDA. […] In terms of its pharmacology and of its mechanism of signal transduction the active receptor in the above conditions can be compared to the CC1 reporter measured in cultures of cerebellar granule cells.
In two series of experiments rats were injected icv with NMDA together with or without cis-azetidine-2,4-dicarboxylic acid.

GC2 receptor = experiment: calcium influx stimulated by kainate at the GC2 receptor in cerebellar granule cells; assay type: cell-based, rat
Method: as §1, with “These two receptors correspond to the quisqualate and kainate receptors, respectively.” left out

binding site for PCP = experiment: [^3 H]PCP radioligand binding; settings: radioligand binding studies
Excerpt: as §3

GC1 receptor [5] = experiment: calcium influx stimulated by GLU in the absence and presence of Az5; assay type: cell-based, rat
Method: as §1
Azxetidines increase the potency but not the efficacy of GLU action at the GC1 receptor. […] This indicates a 7-fold potentiation of the action of GLU.

## COC(=O)[C@@H]1C[C@H](C(=O)OC(C)(C)C)N1 (relative stereo) [Az1, cis-azetidine-2,4-dicarboxylic acid t-butyl methyl ester]
GC1 receptor [1]
  Calcium Influx % of stimulation by 10 μM GLU: 107%
GC1 receptor [1]; agonist Glu 10 μM (Table 3)
  % activity (potentiation of calcium influx): 107%
GP1 receptor
  PI hydrolysis % of stimulation by 20 μM GLU: 117%

## COC(=O)[C@H]1C[C@H](C(=O)OC(C)(C)C)N1 (relative stereo) [Az2, trans-azetidine-2,4-dicarboxylic acid-t-butyl methyl ester]
GC1 receptor [1]
  Calcium Influx % of stimulation by 10 μM GLU: 104%

## CC(C)(C)OC(=O)[C@H]1C[C@@H](C(=O)O)N1 (relative stereo) [Az3, cis-azetidine-2,4-dicarboxylic acid mono-t-butyl ester]
GC1 receptor [1]
  Calcium Influx % of stimulation by 10 μM GLU: 141%
GC1 receptor [1]; agonist Glu 10 μM (Table 3)
  % activity (potentiation of calcium influx): 141%
GC1 receptor [1]; agonist Glu 20 μM (Table 3)
  % activity (potentiation of calcium influx): 136%
GP1 receptor
  PI hydrolysis % of stimulation by 20 μM GLU: 125%

## CC(C)(C)OC(=O)[C@H]1C[C@H](C(=O)O)N1 (relative stereo) [Az4, trans-azetidine-2,4-dicarboxylic acid mono-t-butyl ester]
GC1 receptor [1]
  Calcium Influx % of stimulation by 10 μM GLU: 100%
GP1 receptor
  PI hydrolysis % of stimulation by 20 μM GLU: 109%

## O=C(O)[C@H]1C[C@H](C(=O)O)N1 (relative stereo) [Az6, trans-azetidine-2,4-dicarboxylic acid]
GC1 receptor [1]
  Calcium Influx % of stimulation by 10 μM GLU: 103%
GP1 receptor
  PI hydrolysis % of stimulation by 20 μM GLU: 83%

## NC(=O)[C@@H]1C[C@H](C(=O)O)N1 (relative stereo) [Az8, cis-4-carbamoylazetidine-2-carboxylic acid]
GC1 receptor [1]; agonist Asp 20 μM (Table 3)
  % activity (potentiation of calcium influx): 150%

## COC(=O)[C@H]1C[C@@H](C(=O)O)N1 (relative stereo) [Az11, cis-azetidine-2,4-dicarboxylic acid methyl ester]
GC1 receptor [1]; agonist Glu 10 μM (Table 3)
  % activity (potentiation of calcium influx): 122%

## O=C(O)[C@H]1C[C@@H](CO)N1 (relative stereo) [Az13, cis-4-(hydroxymethyl)azetidine-2-carboxylic acid]
GC1 receptor [1]; agonist Asp 10 μM (Table 3)
  % activity (potentiation of calcium influx): 159%

## NC(CCCP(=O)(O)O)C(=O)O (centres unmarked) [APV, 2-amino-5-phosphonovaleric acid]
NMDA receptor subtype [2]
  effect on increases in cGMP content induced by NMDA: antagonized

## N[C@@H](CC(=O)O)C(=O)O [ASP, Aspartate, reference compound]
GC1 receptor [3]; ASP 50 μM, no PCP
  ASP-stimulated calcium influx: 31.3 ± 3.4 nmol ^45 Ca^2+ /mg protein

## O=C(O)[C@@H]1C[C@H](C(=O)O)N1 [Az5, cis-azetidine-2,4-dicarboxylic acid]
NMDA receptor subtype [4]; 5 min, Az5 2 μg
  cGMP: 6.8 ± 0.8
  cGMP % Control: 142 % Control
NMDA receptor subtype [4]; 5 min, NMDA + Az5 together
  cGMP: 16.1 + 2.9
  cGMP % Control: 334 % Control
NMDA receptor subtype [4]; 10 min, Az5 10 μg
  cGMP: 14.9 ± 1.3
  cGMP % Control: 192 % Control
NMDA receptor subtype [4]; 10 min, NMDA + Az5 together
  cGMP: 16.5 + 2.8
  cGMP % Control: 211 % Control
NMDA receptor subtype [4]; both series
  effect on action of endogenous receptor agonist and injected NMDA: potentiated the action of the endogenous receptor agonist as well as the action of injected NMDA
GC1 receptor [1]
  Calcium Influx % of stimulation by 10 μM GLU: 207%
GC1 receptor [1]; GC1 receptor
  effect on calcium influx stimulated by NMDA, GLU, ASP and QUIS: potentiated
GC1 receptor [1]; agonist Asp 10 μM (Table 3)
  % activity (potentiation of calcium influx): 196%
GC1 receptor [1]; agonist Asp 20 μM (Table 3)
  % activity (potentiation of calcium influx): 141%
GC1 receptor [1]; agonist Aspartate (ASP) 20 μM
  Percent Activity (potentiation of calcium influx): 144%
GC1 receptor [1]; agonist Glu 10 μM (Table 3)
  % activity (potentiation of calcium influx): 207%
GC1 receptor [1]; agonist Glu 20 μM (Table 3)
  % activity (potentiation of calcium influx): 157%
GC1 receptor [1]; agonist Glutamate (GLU) 20 μM
  Percent Activity (potentiation of calcium influx): 169%
GC1 receptor [1]; agonist NMDA 20 μM
  Percent Activity (potentiation of calcium influx): 188%
GC1 receptor [1]; agonist Quisqualate (QUIS) 20 μM
  Percent Activity (potentiation of calcium influx): 124%
GP1 receptor
  PI hydrolysis % of stimulation by 20 μM GLU: 124%
GC2 receptor; GC2 receptor
  effect on the action of KAIN: not affected
GC2 receptor; agonist Kainate 20 μM
  Percent Activity (potentiation of calcium influx): 104%
Binding site for PCP
  displacement of specific [^3 H]PCP binding: failed to displace the specific binding of [^3 H]PCP
GC1 receptor [3]; ASP 50 μM + Az5 50 μM, PCP 20 nM
  ASP-stimulated calcium influx: 57.2 ± 3.2 nmol ^45 Ca^2+ /mg protein
GC1 receptor [3]; ASP 50 μM + Az5 50 μM, PCP 50 nM
  ASP-stimulated calcium influx: 32.2 ± 1.3 nmol ^45 Ca^2+ /mg protein
GC1 receptor [3]; ASP 50 μM + Az5 50 μM, PCP 100 nM
  ASP-stimulated calcium influx: 13.3 ± 0.3 nmol ^45 Ca^2+ /mg protein
GC1 receptor [3]; ASP 50 μM + Az5 50 μM, no PCP
  ASP-stimulated calcium influx: 64.5 ± 2.6 nmol ^45 Ca^2+ /mg protein
GC1 receptor [3]; with PCP
  action of PCP on ASP-stimulated signal transduction: exhibits the ability to decrease the action of PCP on ASP-stimulated signal transduction
GC1 receptor [5]; 50 μM Az5, from EC50 of GLU
  potentiation of the action of GLU: 7 fold

## COC(=O)[C@@H]1C[C@H](C(=O)OC)N1 [Az7, cis-azetidine-2,4-dicarboxylic acid dimethyl ester]
GC1 receptor [1]; agonist Glu 50 μM (Table 3)
  % activity (potentiation of calcium influx): 68%

## NC(=O)[C@@H]1C[C@H](C(N)=O)N1 [Az9, cis-azetidine-2,4-dicarboxamide]
GC1 receptor [1]; agonist Asp 20 μM (Table 3)
  % activity (potentiation of calcium influx): 106%

## O=C(O)[C@H]1C[C@@H](C(=O)O)N1Cc1ccccc1 [Az10, cis-N-benzylazetidine-2,4-dicarboxylic acid]
GC1 receptor [1]; agonist Asp 10 μM (Table 3)
  % activity (potentiation of calcium influx): 121%

## O=C(O)[C@@H]1CCN1 [Az12, L-2-azetidinecarboxylic acid, reference compound]
GC1 receptor [1]; agonist Glu 20 μM (Table 3)
  % activity (potentiation of calcium influx): 110%

## N[C@@H](CCC(=O)O)C(=O)O [GLU, Glutamate]
GC1 receptor [5]; in the absence of Az5
  EC50: 51 µM
GC1 receptor [5]; in the presence of 50 μM Az5
  EC50: 7 µM

## CN[C@H](CC(=O)O)C(=O)O [NMDA, N-methyl-D-aspartate, reference compound]
NMDA receptor subtype [4]; 5 min, NMDA 2 μg
  cGMP: 5.6 ± 0.8
  cGMP % Control: 136 % Control
NMDA receptor subtype [4]; 10 min, NMDA 1 μg
  cGMP: 10.5 ± 2.3
  cGMP % Control: 135 % Control

## c1ccc(C2(N3CCCCC3)CCCCC2)cc1 [PCP, phencyclidine, reference compound]
GC1 receptor [3]; ASP 50 μM, PCP 20 nM
  ASP-stimulated calcium influx: 23.0 ± 1.7 nmol ^45 Ca^2+ /mg protein
GC1 receptor [3]; ASP 50 μM, PCP 50 nM
  ASP-stimulated calcium influx: 9.2 ± 0.5 nmol ^45 Ca^2+ /mg protein
GC1 receptor [3]; ASP 50 μM, PCP 100 nM
  ASP-stimulated calcium influx: 0.7 ± 0.1 nmol ^45 Ca^2+ /mg protein
